Assay [1] deals with P2Y purinoceptor 1 (Homo sapiens, UniProt P47900). Briefly: Antagonist activity at P2Y1 receptor (unknown origin). It is filed as functional.
Assay [2] can be described thus: Antithrombotic activity in fresh platelet rich plasma. It is filed as functional, cell-based.
Assay [3] has as its system Plasma. Briefly: Anticoagulant activity in rabbit plasma assessed as prothrombin time. It is filed as functional, Oryctolagus cuniculus.
Assay [4] concerns Plasma. Briefly: Antiplatelet aggregation activity in rabbit plasma incubated for 5 mins. It is filed as functional, cell-free. To be noted: Oryctolagus cuniculus.
In assay [5] the target is Coagulation factor X (Mus musculus, UniProt O88947). Briefly: Inhibition of mouse FXa.
Assay [6] is described as follows: Antiplatelet aggregation activity in rabbit platelet assessed as reduction in ADP-induced platelet aggregation. It is filed as functional, cell-based. As to conditions: Oryctolagus cuniculus.
Assay [7] relates to Plasma. Briefly: Anticoagulant activity in rabbit plasma assessed as thrombin time. It is filed as functional, Oryctolagus cuniculus.
Assay [8] concerns Plasma. Briefly: Anticoagulant activity in rabbit plasma assessed as activated partial thromboplastin time. It is filed as functional, Oryctolagus cuniculus.
The species named for assay [9] is Rattus norvegicus. Briefly: Antiplatelet aggregration activity in arteriovenous bypass thrombosis rat model assessed as aggregation inhibition rate relative to control. It is filed as functional.
In assay [10] the test system is Plasma (Mus musculus). Briefly: Anticoagulant activity in mouse plasma assessed as prothrombin time.
The test system of assay [11] is Plasma. Briefly: Antithrombotic activity in rat plasma. It is filed as functional.
Assay [12] in a line: Anticoagulant activity in human platelet assessed as reduction in thrombin-induced platelet aggregation in presence of ADP by measuring turbidity. It is filed as functional, cell-based.
Assay [13] in a line: Antiplatelet activity in platelet (unknown origin) assessed as inhibition of ADP-induced platelet aggregation relative to control. It is filed as functional, cell-based.
Assay [14] can be described thus: Antiplatelet activity in human platelet. It is filed as functional, cell-based.
In assay [15] the test system is Blood. Briefly: Antithrombotic activity in ferric chloride-treated carotid artery thrombosis Sprague-dawley rat blood assessed as clot weight at 50 mg/kg (RVB = 72.50 +/- 2 mg). It is filed as functional.
The test system of assay [16] is Blood. Briefly: Antithrombotic activity in photochemically induced arterial thrombosis Cynomolgus monkey blood assessed as decrease in occlusion time (reference value: 119 +/- 17.40 min). It is filed as functional, Macaca fascicularis.
Assay [17] relates to Blood. Briefly: Antithrombotic activity in ferric chloride-treated carotid artery thrombosis Sprague-dawley rat blood assessed as clot weight at 10 mg/kg (RVB = 72.50 +/- 2 mg). It is filed as functional.
Assay [18] concerns Plasma. Briefly: Antiplatelet activity in plasma (unknown origin) assessed as reduction of thrombin-induced platelet aggregation by aggregometer. It is filed as functional, cell-free. As to conditions: Homo sapiens.
Assay [19] concerns Plasma. Briefly: Antiplatelet activity in plasma (unknown origin) assessed as reduction of ADP-induced platelet aggregation by aggregometer. As to conditions: Homo sapiens. It is filed as functional, cell-free.
In assay [20] the test system is Platelet. Briefly: Potency index, ratio of IC50 for MCI-154 to IC50 for test compound against antiplatelet activity in human platelet. It is filed as functional.
The subject of assay [21] is Plasma. Briefly: Anticoagulant activity in mouse plasma assessed inhibition of thrombin-induced platelet aggregation. It is filed as functional, cell-free.
Assay [22] deals with Plasma. Briefly: Antiplatelet activity in rabbit plasma assessed as inhibition of arachidonic acid induced platelet aggregation. It is filed as functional, cell-free. To be noted: Oryctolagus cuniculus.

Each structure is given as a SMILES string. In brackets after ≈: the same amount, converted by molar mass.

The IC50 is the midpoint of a concentration-inhibition curve. By ED50 is commonly meant the dose at which the effect has come halfway, by size or by number of responders.

Chain of P2Y purinoceptor 1 (P47900 whole entry): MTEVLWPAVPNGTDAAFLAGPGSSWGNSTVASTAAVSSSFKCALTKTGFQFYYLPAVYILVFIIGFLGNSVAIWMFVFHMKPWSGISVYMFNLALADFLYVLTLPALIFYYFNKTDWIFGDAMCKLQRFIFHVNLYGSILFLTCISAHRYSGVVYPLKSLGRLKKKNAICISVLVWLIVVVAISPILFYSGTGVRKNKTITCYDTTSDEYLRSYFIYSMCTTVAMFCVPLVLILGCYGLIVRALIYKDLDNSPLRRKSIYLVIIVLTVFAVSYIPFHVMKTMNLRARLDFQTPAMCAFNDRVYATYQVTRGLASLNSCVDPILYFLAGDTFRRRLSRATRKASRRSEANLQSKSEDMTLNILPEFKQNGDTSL
Chain of Coagulation factor X (O88947 41-180 limits assumed): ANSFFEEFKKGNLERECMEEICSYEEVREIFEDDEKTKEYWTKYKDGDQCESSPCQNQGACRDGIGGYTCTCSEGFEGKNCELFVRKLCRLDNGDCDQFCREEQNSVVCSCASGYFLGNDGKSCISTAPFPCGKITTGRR
Chain of Coagulation factor X (O88947 232-481 limits assumed): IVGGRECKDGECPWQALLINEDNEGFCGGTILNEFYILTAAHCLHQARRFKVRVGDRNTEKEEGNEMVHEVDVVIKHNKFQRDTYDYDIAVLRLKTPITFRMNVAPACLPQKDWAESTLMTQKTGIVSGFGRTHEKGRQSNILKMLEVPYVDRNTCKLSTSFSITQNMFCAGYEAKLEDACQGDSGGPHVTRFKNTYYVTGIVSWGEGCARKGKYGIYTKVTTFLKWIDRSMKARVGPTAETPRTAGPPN

As for `CNc1ncnc2c1ncn2CC(COP(=O)(O)O)COP(=O)(O)O`, in assay [1], the IC50 was 1090 nM.
`O=C(CC1CCCCCCCCCNC(=O)OCOC(=O)C(Cc2ccccc2)NC1=O)OCc1ccccc1` (centres undefined) showed an IC50 in [2] of 200 nM.
For `CC(=O)Nc1ccc(C(=O)Nc2cc(C(N)=O)ccc2NC(=O)c2ccc(-n3ccccc3=O)cc2)cc1Cl`, in [3], the Time is 10.2 s.
For the molecule `CCN1C(=O)COc2cc(NC(=O)c3ccccc3)ccc21`, half-maximal inhibition in assay [4] (IC50) required 8.99 µM.
With `CC(=N)N1CCC(Oc2ccc3c(c2)C(=O)NS(=O)(=O)N3C/C=C/c2cccc(C(=N)N)c2)CC1`, in [5], the IC50 amounted to 2.8 nM.
For the molecule `O=C(O)/C=C/c1ccc(Cn2ccnc2)cc1` [OZAGREL], the IC50 in [6] was 2.85 mM.
Take `CNc1nc(Cl)nc2c1ncn2CCC(COP(=O)(O)O)COP(=O)(O)O`: half-maximal inhibition in [1] (IC50) was put at 840 nM.
For the molecule `COc1cc(O)c2c(=O)c(O)c(-c3ccc(O)c(O)c3)oc2c1` [RHAMNETIN], the Time in assay [3] was determined as 72.6 s; in assay [7] it was 23 s; in assay [8], 6.8 s.
In the case of `COc1cc(/C=C/C(=O)OC2COC3C(O[N+](=O)[O-])COC23)ccc1OC(=O)c1ccccc1OC(C)=O` (centres undefined), the “inhibition (INH)” value in assay [9] worked out at 28.7%.
Regarding `O=C(OCCOc1ccc2ccc(=O)oc2c1)c1ccccc1OCCOc1ccc2ccc(=O)oc2c1`, the Time in assay [10] was 10.88 s.
In assay [11], `N#Cc1ccc(SC2SC[C@H](O)[C@@H](O)[C@H]2O)cc1` (some centres undefined) registered an ED50 of 15 mg/kg.
With `COc1cc(/C=C/C(=O)O)ccc1O` [FERULATE], in assay [6], the IC50 was 19.6 mM.
Turning to `COc1cc(O)cc2oc(-c3ccc(O)c(O)c3)c(O)c(=O)c12`, the Time in [3] was found to be 49.2 s; in assay [7], 19.4 s; in assay [8], 7.6 s.
`N#Cc1ccc(S[C@@H]2SC[C@@H](O)[C@H](O)[C@H]2O)cc1` [BECIPARCIL]: the ED50 in assay [11] was 25 mg/kg.
`Cc1cc(=O)oc2cc(OCCOc3ccccc3C(=O)OCCOc3ccc4ccc(=O)oc4c3)ccc12`: the Time in assay [10] worked out at 13.1 s.
Take `O=C1CNC(=O)C(Cc2c[nH]cn2)N1` (centres undefined): the IC50 in [12] was determined as 66 µM.
In the case of `CC(=O)Oc1ccccc1C(=O)Nc1n[n+](-c2ccc(C)cc2)no1`, the “inhibition (INH)” value in assay [13] is given as 30.7%.
For the molecule `COc1cc(C(=O)Nc2cc(C(N)=O)ccc2NC(=O)c2ccc(-n3ccccc3=O)cc2)ccc1O`, the Time in assay [3] came out at 8.8 s.
On to `COc1cc(/C=C/C(=O)O)ccc1OCc1cccnc1`, for which the IC50 in assay [6] was determined as 1.76 mM.
For `CCCN(CCC)CC(=O)Nc1ccc(C2=NNC(=O)CC2C)cc1` (centres undefined), the IC50 in assay [14] stood at 85 nM.
Take `O=C(COCC(=O)N1CCN(C(c2ccccc2)c2ccccc2)CC1)Nc1ccc(Cl)cc1C(=O)[O-].[Na+]`: the Activity in assay [15] turned out to be 56.8 mg; in assay [17], 60.9 mg. In addition, the Time in assay [16] is recorded as 53.9 min.
On to `O=C(O)C(Cc1ccc2c(c1)OCC(COCC1CCNCC1)O2)NS(=O)(=O)c1ccccc1` (centres undefined), for which the figures for the IC50 in assay [18] and in assay [19] were 22.2 µM and 41.7 µM, respectively.
In the case of `COc1cc(/C=C/C(=O)O)ccc1OCCN(C)C`, the “inhibition (INH)” value in [13] is on record as 83.1%.
As for `CCCN(CCC)CC(=O)Nc1ccc(C2=NNC(=O)CC2)cc1`, in assay [14], inhibition was half-maximal at 30 nM (IC50). The “Ratio IC50” value in [20] was 10.
For `CNc1ncnc2c1ncn2CCC(COP(=O)(O)O)COP(=O)(O)O`, the IC50 in assay [1] turned out to be 1600 nM.
In the case of `COc1cc(/C=C/C(=O)OCCCCCCCCCOc2no[n+]([O-])c2S(=O)(=O)c2ccccc2)ccc1OC(=O)c1ccccc1OC(C)=O`, the “inhibition (INH)” value in assay [9] is 15.7%.
With `CCOC(=O)CCN(C(=O)c1ccc2c(c1)nc1n2CCN(CC(=O)OCc2ccccc2)C1Cc1ccc(/C(N)=N/CC(=O)OCc2ccccc2)cc1)c1ccccc1` (centres undefined), the IC50 in assay [21] came out at 470 nM.
`O=C1CCC(c2ccc(Nc3ccncc3)cc2)=NN1` [SENAZODAN]: the IC50 in [14] worked out at 360 nM.
`O=C(CC1Nc2c(ccc(Cl)c2[N+](=O)[O-])OC1=O)c1ccc(Br)cc1` (centres undefined): the IC50 in assay [22] came out at 17 µg/mL (≈ 39.8 µM).
Regarding `Cn1c(CNc2ccc(C(=N)N)cc2)nc2cc(C(=O)N(CCC(=O)O)c3ccccn3)ccc21` [DABIGATRAN], in assay [21], the IC50 was determined as 600 nM.
In assay [14], `CC1CC(=O)NN=C1c1ccc(NC(=O)CN2CCCCC2)cc1` (centres undefined) registered an IC50 of 50 nM.

Values taken from ChEMBL document CHEMBL5126515, “Progress of thrombus formation and research on the structure-activity relationship for antithrombotic drugs” (Eur J Med Chem, 2022).
